Source: patent US20220096511A1, “ANTIFUNGAL AGENTS WITH IMPROVED WATER SOLUBILITY” (priority 2019, published 2022)
≈ marks a conversion by molar mass, not a printed value. Where two headings read alike, the source gives them in different places.

What was measured:
[1] = system: Aspergillus niger; test: Minimum inhibitory concentration (MIC) testing, diffusion disc assay; assay type: cell-based; settings: for MIC: Aspergillus niger, read-out: Inhibition of Aspergillus niger (MIC)
Procedure: (§1) Minimum inhibitory concentration (MIC) testing was determined for nystatin ethanol amide along with comparative antifungal agents.
(§2) Nystatin (Solid) and amphotericin were dissolved in DMF in 1 mg/mL. Econazole nitrate and Nystatin ethanol amide (salt) were dissolved in PBS to achieve 1 mg/mL.
(§3) Antibiotic medium 19 was sterilized in autoclave, after sterilization when the temperature lowered to 45° C. and 1 mL from spore suspension was added. 8 mL from this mixture dispensed to each petri dish.
(§4) On each dish 6 sterile diffusion paper disc were placed, 10 μL from each antibiotic were applied in 10, 15, 20, 25, 30, 35 μg/mL concentrations. Where MIC concentrations were below 10, lower concentrations were used: 2, 5, 7.5 μg/mL
(§5) The petri dishes were incubated overnight at 30° C. The MIC were determined as the lower concentration that inhibition could be visualized.
(§6) Observations. In this diffusion disc assay we measured the minimal concentration applied by each compound needed to inhibit the growth of C. albicans and A. niger. […] Amphotericin B inhibit the growth of C. albicans (16 μg/mL) similarly to Nystatin and Nystatin water soluble.

[2] = system: Candida albicans; test: as above; assay type: cell-based; settings: for Inhibition of Candida albicans (MIC): diffusion paper disc, overnight at 30° C., average of three experiments
Procedure: as §1, §2, §3, §4, §5, §6

[3] = Endotoxin testing (LAL); settings: standard methods
Procedure: Endotoxin testing (LAL) was performed using standard methods and found to be <30 Eu/mg.

[4] = system: microorganisms; test: Potency testing, cylinder plate assay, method USP <81>; assay type: cell-based; settings: for 1 mg
Description: The terms “antifungal activity” or “potency,” these terms being used interchangeably, refer to the inhibitory effect of an antifungal agent on microorganisms under suitable conditions as measured using a standard analytical method, such as the methods established by the United States Pharmacopeial Convention (USP).
Potency testing is done using a cylinder plate assay using the methods described in U.S. Pharmacopeia, e.g., Pharmacopeial Forum, Vol. 36(6) [November-December 2010] <81> Antibiotics—Microbial Assays, USP 32 page 86 ff.
FIG. 5 is a photo showing the results of potency testing according to method USP/81 of the nystatin ethanol amide product.

[5] = system: hep2 cell line; test: Toxicity: viability of hep2 cell line after incubation with the compound; assay type: cell-based; settings: compared with nystatin
Procedure: Toxicity: Toxicity was tested with hep2 cell line by checking their viability after incubation with the compound. The amount of the compound that corresponds to 50% cell viability is the maximum amount of compound that can be apply on to cell culture.

[6] = diffusion paper disc, overnight at 30° C., average of three experiments

Molecule	Inhibition of Aspergillus niger (MIC) [1, 6]	Inhibition of Candida albicans (MIC) [2]	further results
Clc1ccc(COC(Cn2ccnc2)c2ccc(Cl)cc2Cl)cc1 (stereo not drawn) [Econazole, Econazole nitrate]	No inhibition	No inhibition	
C[C@@H]1[C@H](O)[C@@H](C)/C=C/C=C/CC/C=C/C=C/C=C/C=C/[C@H](O[C@@H]2O[C@H](C)[C@@H](O)[C@H](N)[C@@H]2O)C[C@@H]2O[C@](O)(C[C@@H](O)[C@H](O)CC[C@@H](O)C[C@@H](O)C[C@@H](O)CC(=O)O[C@H]1C)C[C@H](O)[C@H]2C(=O)NCCO [Nystatin ethanol amide]			Endotoxin (LAL) [3]: < 30 Eu/mg; MIC [1]: 23.6 µg/mL (≈ 24.4 µM); MIC ([2]; Candida albicans, read-out: Inhibition of Candida albicans (MIC)): 15.7 µg/mL (≈ 16.2 µM); potency [4]: 5500-6500 U; Toxicity (amount of compound corresponding to 50% cell viability) [5]: the same or better than the unsalable nystatin
C[C@@H]1[C@H](O)[C@@H](C)/C=C/C=C/CC/C=C/C=C/C=C/C=C/C(O[C@H]2O[C@H](C)[C@@H](O)[C@H](N)[C@@H]2O)CC2O[C@](O)(CC(O)C(O)CCC(O)CC(O)CC(O)CC(=O)O[C@H]1C)CC(O)C2C(=O)O (stereo partly drawn) [Nystatin]	22.5 µg/mL	14 µg/mL	
C[C@@H]1[C@H](O)[C@@H](C)/C=C/C=C/C=C/C=C/C=C/C=C/C=C/[C@H](O[C@@H]2O[C@H](C)[C@@H](O)[C@H](N)[C@@H]2O)C[C@@H]2O[C@](O)(C[C@@H](O)C[C@@H](O)[C@H](O)CC[C@@H](O)C[C@@H](O)CC(=O)O[C@H]1C)C[C@H](O)[C@H]2C(=O)O [Amphotericin, amphotericin B]			MIC [1, 6]: 31.5 µg/mL (≈ 34.1 µM)
Nystatin Methyl ester	No inhibition	30 µg/mL	Inhibition of Aspergillus niger (MIC) ([1]; diffusion paper disc, overnight at 30° C., average of three experiments, listed as Nystatin methyl ester): no observed inhibition
Polymixin B	No inhibition	No inhibition	
